Data from publication PMC12668310, “High‐Throughput Synthesis and Screening of a Cyanimide Library Identifies Selective Inhibitors of ISG15‐Specific Protease mUSP18” (Angewandte Chemie (International Ed. in English), 2025).
Where two headings read alike, the source gives them in different places.

Target: T1, mUSP18 (Mus musculus, UniProt Q9WTV6)
T1 construct: (46-368); His-tag (N); made in house
T1 sequence (Q9WTV6 46-368): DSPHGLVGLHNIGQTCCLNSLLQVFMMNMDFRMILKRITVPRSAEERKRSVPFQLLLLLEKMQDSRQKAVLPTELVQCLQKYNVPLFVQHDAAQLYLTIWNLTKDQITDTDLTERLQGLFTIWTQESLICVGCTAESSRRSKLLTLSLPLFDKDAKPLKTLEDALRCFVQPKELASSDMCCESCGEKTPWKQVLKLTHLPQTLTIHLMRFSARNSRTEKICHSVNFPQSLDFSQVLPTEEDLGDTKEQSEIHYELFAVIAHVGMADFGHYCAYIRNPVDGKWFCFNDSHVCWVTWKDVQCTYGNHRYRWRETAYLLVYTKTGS
Assay: High-throughput screening, ISG15ct-RhoMP, single dose 1.25 µM
Assay type: biochemical, murine
Settings: mUSP18 %inhibition

[1] = carboxylic acid (CA) building block alone, read-out: %inh CA only
[2] = carboxylic acid (CA) with coupling reagents DIC/HOBT, read-out: %inh CA + DIC/HOBT

| Structure (SMILES) | %inh CA only (carboxylic acid (CA) building block alone) [%] | %inh CA + DIC/HOBT (carboxylic acid (CA) with coupling reagents DIC/HOBT) [%] | inhibition at 1.25 µM [1] [%] | inhibition at 1.25 µM [2] [%] |
| --- | --- | --- | --- | --- |
| O=C(O)C1(NS(=O)(=O)C=Cc2ccccc2)CCCC1 [CA334] |  |  | 0.85 | 6.5 |
| O=C(O)C1CC1 [CA077] |  |  | -6.84 | -14.4 |
| Cc1cc(C(=O)O)c(C)n1C1CC1 [CA239] |  |  | 7.06 | 5.98 |
| NS(=O)(=O)c1ccc(-c2cccc(C(F)(F)F)c2)c(C(=O)O)c1 [CA103] |  |  | 11.4 | 12.3 |
| O=C(O)c1ccc(/N=N/c2ccccc2)cc1 [CA016] |  |  | 3.44 | -5.83 |
| O=C(O)c1ccc(N2CCCCCC2)nc1 [CA344] |  |  | 0.4 | 47 |
| O=C(O)C1CN(S(=O)(=O)C2CC2)C1 [CA258] |  |  | 20.5 | 2.25 |
| Cc1cc(C)c(C(=O)O)c(OCC2CCCCC2)n1 [CA131] |  |  | 9.41 | 31.3 |
| O=C(O)c1cccnc1N1CCCCC1 [CA251] |  |  | -0.46 | 6 |
| CC(C)n1nccc1[1C@@H]1OCC[1C@H]1C(=O)O [CA449] |  |  | 2.37 | -9.4 |
| CCn1nc(C(C)C)cc1C(=O)N1CCCCC1C(=O)O (stereo not drawn) [CA431] |  |  | -2.4 | -10.1 |
| COc1cc(C(=O)O)ccc1OCc1c(C)noc1C [CA147] |  |  | 5.62 | 3.45 |
| O=C(O)C1COCCN1C(=O)OCc1ccccc1 (stereo not drawn) [CA265] |  |  | 7.65 | 3.99 |
| O=C(O)c1ccc(S(=O)(=O)Nc2cccc(Cl)c2F)o1 [CA289] |  |  | 1.57 | -1.23 |
| O=C(O)C1(n2cnnn2)CCOCC1 [CA120] |  |  | 11.7 | 5.68 |
| O=C(O)c1cnn(CC2CCCCO2)c1 (stereo not drawn) [CA174] |  |  | 2.59 | 8.37 |
| COc1ccccc1-c1nnc(CC(=O)O)o1 [CA162] |  |  | 23.2 | 4.62 |
| O=C(O)C1CCN(C(=O)c2ccc(Cl)s2)CC1 [CA350] |  |  | -0.76 | 4.42 |
| COc1ccccc1N1CC(C(=O)O)CCC1=O (stereo not drawn) [CA409] |  |  | -0.2 | -6.22 |
| CCS(=O)(=O)N1CCC(C(=O)O)(c2ccccc2)CC1 [CA234] |  |  | 19.5 | 0.71 |
| CN1CCN(C(=O)[1C@@H]2[1C@@H](C(=O)O)C2(C)C)CC1 [CA273] |  |  | 5.18 | 5.09 |

| Structure (SMILES) | %inh CA only (carboxylic acid (CA) building block alone) [%] | %inh CA + DIC/HOBT (carboxylic acid (CA) with coupling reagents DIC/HOBT) [%] | inhibition at 1.25 µM [1] [%] | inhibition at 1.25 µM [2] [%] |
| --- | --- | --- | --- | --- |
| O=C(O)Cc1csc(COc2ccc(Cl)cc2)n1 [CA097] |  |  | 15.8 | 12.5 |
| Cn1ccnc1CN1CCC(C(=O)O)CC1 [CA348] |  |  | -0.25 | -2.62 |
| O=C(O)C1CCCN(c2ncccc2C(F)(F)F)C1 (stereo not drawn) [CA440] |  |  | -5.84 | -2.29 |
| O=C(O)c1ncsc1Cc1ccccc1 [CA443] |  |  | 7.6 | 12 |
| C#CCCC(=O)O [CA014] |  |  | -1.43 | -9.92 |
| O=C(O)CCc1ccccc1 [CA072] |  |  | -7.29 | -13.3 |
| CC(=O)C(=O)O [CA079] |  |  | -7.45 | -14.4 |
| O=C(O)c1ccc(Cn2cc(Cl)c(C(F)(F)F)n2)o1 [CA372] |  |  | 5.98 | 8.2 |
| O=C(O)CC1CCN(c2ccc(Cl)nn2)CC1 [CA453] |  |  | -0.89 | -4.65 |
| CC(=O)Oc1ccccc1C(=O)O [CA071] |  |  | -4.57 | -15.7 |
| O=C(O)C1CCN(S(=O)(=O)N2CCCCC2)CC1 [CA365] |  |  | -1.04 | 2.17 |
| O=C(O)c1cn(CC(=O)N2CCCC2)nn1 [CA161] |  |  | 2.32 | 14.5 |
| O=Cc1ccccc1C(=O)O [CA045] |  |  | -3.41 | -8.39 |
| COc1ccc(N2CCN(C(C)C(=O)O)CC2)cc1 (stereo not drawn) [CA130] |  |  | 7.09 | 7.3 |
| O=C(O)C(c1ccccc1)n1cccc1 (stereo not drawn) [CA457] |  |  | 0.68 | -4.48 |
| O=C(O)C1CCCN1C(=O)c1ccncc1 (stereo not drawn) [CA290] |  |  | -0.53 | -3.12 |
| Cc1noc(C)c1S(=O)(=O)N1CCCC1C(=O)O (stereo not drawn) [CA342] |  |  | 2.95 | 1.55 |
| O=C(O)CC(NS(=O)(=O)c1ccccc1)c1ccc(Cl)cc1 (stereo not drawn) [CA138] |  |  | 22.3 | 5.42 |
| O=C(O)c1ccc(C#Cc2ccccc2)cc1 [CA401] |  |  | 8.14 | -4.27 |
| O=C(O)c1ccccc1I [CA004] |  |  | -4.47 | -12.2 |

Now from value to compound:

| %inh CA only (carboxylic acid (CA) building block alone) [%] | %inh CA + DIC/HOBT (carboxylic acid (CA) with coupling reagents DIC/HOBT) [%] | inhibition at 1.25 µM [1] [%] | inhibition at 1.25 µM [2] [%] | Structure (SMILES) |
| --- | --- | --- | --- | --- |
| -1.35 | -15.60 |  |  | O=C(O)c1cnccn1 [CA015] |
|  |  | 8.46 | 4.42 | O=C(O)c1noc(-c2cccc(Cl)c2)n1 [CA169] |
|  |  | -2.93 | 2.57 | Cc1ccc(Oc2ccc(C(=O)O)nc2)cc1 [CA398] |
|  |  | 1.19 | 12.1 | Cc1cc(C(=O)O)c(C2CC2)s1 [CA175] |
|  |  | 2.84 | 5.46 | Cc1nc(CN2CCCC2C(=O)O)no1 (stereo not drawn) [CA127] |
|  |  | -4.51 | 6.42 | Cn1cc(-c2ccc(C(=O)O)o2)cn1 [CA304] |
|  |  | 2.07 | 6.58 | Cn1cc(S(=O)(=O)NCc2ccco2)cc1C(=O)O [CA157] |
|  |  | 8.25 | 12.6 | Cc1oc(-c2cccs2)nc1C(=O)O [CA346] |
|  |  | 0.72 | 1.39 | O=C(O)c1cccc(C(=O)N2CCCC2)n1 [CA369] |
|  |  | 10.2 | -0.34 | O=C(O)c1cnc(-c2ccco2)s1 [CA188] |
|  |  | -10.4 | -3.35 | O=C(O)Cc1csc(N2CCCC2=O)n1 [CA388] |
|  |  | -4.05 | -2.36 | Cn1cc(-c2nc(C(=O)O)cs2)cn1 [CA442] |
|  |  | 9.15 | 7.35 | O=C(O)c1c[nH]nc1-c1cccnc1 [CA140] |
|  |  | -0.57 | 0.73 | Cn1nc(CC(=O)O)cc1C1CC1 [CA325] |
|  |  | 2.74 | -10.8 | O=C(O)c1cnn(-c2ccccc2)n1 [CA377] |
|  |  | 10.7 | 3.42 | O=C(O)c1cnnn1-c1ccccc1Cl [CA124] |
|  |  | 12.1 | 1.48 | Cc1onc(-c2ccccn2)c1C(=O)O [CA260] |
|  |  | 8.26 | 6.3 | O=C(O)c1cc(Cn2cc(Cl)cn2)cs1 [CA275] |
|  |  | 14.4 | -2.41 | Cn1nccc1[1C@@H]1OCCC[1C@H]1C(=O)O [CA164] |
|  |  | 2.13 | -7.19 | Cc1oc(-c2ccsc2)nc1CC(=O)O [CA425] |
|  |  | 16 | 9.48 | O=C(O)c1cc(-c2ccc(Br)cc2)ns1 [CA165] |
|  |  | 8.54 | 4.99 | O=C(O)c1cncc(N2CCCC2)n1 [CA266] |
